From PubChem BioAssay (NCI)
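Test compounds were applied to cells in 96-well plates for 48 hours at 5 doses. TGI is the concentration that stops growth completely.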

Assays:
Experiment in all cases: inhibition of tumour cell growth, NCI panel, 48 h
[1] = system: PC-3 prostate
[2] = system: SK-MEL-28 melanoma
[3] = system: OVCAR-3 ovarian
[4] = system: A498 renal
[5] = system: HL-60(TB) leukemia
[6] = system: HT29 colon
[7] = system: HCT-116 colon
[8] = system: UO-31 renal
[9] = system: CCRF-CEM leukemia
[10] = system: DU-145 prostate
[11] = system: UACC-257 melanoma
[12] = system: U251 CNS
[13] = system: SNB-75 CNS
[14] = system: SR leukemia
[15] = system: MDA-N
[16] = system: HOP-92 NSCLC
[17] = system: IGROV1 ovarian
[18] = system: CAKI-1 renal
[19] = system: UACC-62 melanoma
[20] = system: HOP-62 NSCLC

Row | SMILES | TGI [1] | TGI [2] | TGI [3] | TGI [4] | TGI [5] | TGI [6] | TGI [7] | TGI [8] | TGI [9] | TGI [10] | TGI [11] | TGI [12] | TGI [13] | TGI [14] | TGI [15] | TGI [16] | TGI [17] | TGI [18] | TGI [19] | TGI [20]
1 | CCOP(=O)(O)C(Nc1ccc(N=Nc2ccccc2)cc1)c1cccc(C(Nc2ccc(N=Nc3ccccc3)cc2)P(=O)(O)OCC)c1 (stereo not given) | 67.5 µM | 93.7 µM | > 100 µM | 88.6 µM | 69.7 µM | 40.9 µM | > 100 µM | > 100 µM | 96.7 µM | > 100 µM | > 100 µM | > 100 µM | > 100 µM | > 100 µM | > 100 µM | > 100 µM | > 100 µM | > 100 µM | 78.1 µM | 58.5 µM
2 | Cc1[nH]c(-c2ccccc2)c2nc(N(C)C)oc(=O)c12 | > 100 µM | > 100 µM | – | > 100 µM | > 100 µM | > 100 µM | > 100 µM | > 100 µM | > 100 µM | > 100 µM | > 100 µM | > 100 µM | > 100 µM | > 100 µM | > 100 µM | > 100 µM | > 100 µM | > 100 µM | > 100 µM | > 100 µM
3 | COc1cc(OC)c2c(=O)c3cccc(C)c3n(C)c2c1 | > 100 µM | > 100 µM | > 100 µM | > 100 µM | > 100 µM | > 100 µM | > 100 µM | – | > 100 µM | > 100 µM | > 100 µM | > 100 µM | > 100 µM | > 100 µM | > 100 µM | > 100 µM | > 100 µM | > 100 µM | > 100 µM | > 100 µM
4 | CCCCCCCCCCCCCCCCNC(=O)/C(=C\c1ccc(Cl)c(Cl)c1)NC(=O)c1ccccc1 | 74.6 µM | > 100 µM | > 100 µM | 35.5 µM | 22 µM | > 100 µM | > 100 µM | > 100 µM | – | 70.7 µM | > 100 µM | > 100 µM | 33.1 µM | 90.7 µM | > 100 µM | 34.7 µM | 41.4 µM | > 100 µM | – | 51.6 µM
5 | CCOC(=O)C(=CNc1ccc(F)c(F)c1)C(=O)OCC | > 100 µM | > 100 µM | > 100 µM | > 100 µM | > 100 µM | > 100 µM | > 100 µM | > 100 µM | > 100 µM | > 100 µM | > 100 µM | > 100 µM | > 100 µM | > 100 µM | > 100 µM | > 100 µM | > 100 µM | > 100 µM | – | > 100 µM
6 | O=[N+]([O-])c1cccc2nccc(NCCN3CCOCC3)c12 | 39.1 µM | 46.1 µM | 25.2 µM | 29.3 µM | > 34.6 µM | 44.4 µM | 30.5 µM | > 100 µM | > 64.8 µM | > 100 µM | 29 µM | > 53.9 µM | 47.2 µM | > 31.4 µM | 61.4 µM | > 100 µM | 45.1 µM | 20.2 µM | – | 35.6 µM
7 | COc1cc(C2c3cc4c(cc3C(=O)C3CCC(=O)N32)OCO4)cc(OC)c1O (stereo not given) | > 50 µM | > 50 µM | > 50 µM | > 50 µM | > 50 µM | > 50 µM | > 50 µM | > 50 µM | > 50 µM | > 50 µM | > 50 µM | > 50 µM | > 50 µM | > 50 µM | > 50 µM | > 50 µM | > 50 µM | – | > 50 µM | > 50 µM
8 | O=C1NC(N/N=C\c2ccccc2)=N/C1=C/c1ccccc1 | 98.4 µM | > 100 µM | 94.9 µM | > 100 µM | > 100 µM | > 100 µM | > 100 µM | > 100 µM | > 100 µM | 78.8 µM | > 100 µM | > 100 µM | 63.2 µM | 53.9 µM | > 100 µM | 66.6 µM | > 100 µM | 87 µM | – | 48.2 µM
9 | CN(N=O)c1nc2c(C(N)=O)ncn2s1 | > 100 µM | > 100 µM | > 100 µM | > 100 µM | – | > 100 µM | > 100 µM | > 100 µM | > 100 µM | > 100 µM | > 100 µM | > 100 µM | > 100 µM | > 100 µM | > 100 µM | > 100 µM | > 100 µM | > 100 µM | > 100 µM | > 100 µM
10 | COC(=O)c1ccc2c(c1)CC1(C2)Cc2ccccc2C1=O (stereo not given) | > 100 µM | 38.7 µM | > 100 µM | > 100 µM | 56.9 µM | 36 µM | 69.4 µM | > 100 µM | 56.5 µM | > 100 µM | 35.2 µM | > 100 µM | 67.3 µM | 65.7 µM | 59.8 µM | 82.9 µM | > 100 µM | > 100 µM | – | > 100 µM
